We go through twelve molecules from paper PMC7822874, “Chemoprotective antimalarials identified through quantitative high-throughput screening of Plasmodium blood and liver stage parasites” (Scientific Reports, 2021).

Assay [1] has as its system Plasmodium falciparum Dd2 asexual blood stage parasites. Kind of assay: microbe, parasite or virus in culture. The conditions noted are these: Plasmodium falciparum, DD2, Erythrocyte, 72 h; read-out: AC50. Also on record: species or system Plasmodium falciparum Dd2 in human erythrocytes; single determination (one 11-point concentration-response curve).
Assay [2] has as its system luciferase-expressing P. berghei liver stage parasites in HepG2 cells. Kind of assay: Inhibition of liver-stage development assay (ILSDA), Method 2 (WRAIR, 96-well). The class given is cell-based, Plasmodium berghei. The conditions noted are these: P. berghei liver stage, Method 2, dose response.
Assay [3] deals with T1, Plasmodium falciparum Dd2-attB-ScDHODH (transgenic line expressing yeast DHODH), asexual blood stages.
T1 construct: Dd2-attB-ScDHODH, the transgenic line that expresses yeast DHODH
Kind of assay: organism not typed. Also noted: replicate k of 3 (each line is one of three independent assays; the three lines of one compound and parasite line follow each other). Particulars: 72 h, n = 1; for AC50: read-out: Individual replicates / Log AC50 (converted); call rule not given here. The procedure, abridged: (§1)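 We compare activity in parasites carrying fumarate-using yeast DHODH with that in the parental line; mETC or parasite DHODH inhibitors are bypassed by this enzyme. Data come from three independent assays, analysed by two-sided Student's t-tests.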

In assay [4] the test system is T2, Plasmodium falciparum Dd2-attB (parental line), asexual blood stages.
T2 construct: Dd2-attB, the isogenic parental line
Kind of assay: microbe, parasite or virus in culture. Also noted: replicate k of 3 (each line is one of three independent assays; the three lines of one compound and parasite line follow each other). The conditions noted are these: n = 1; for Individual replicates / Log AC50 (M): 72 h; for AC50: Plasmodium falciparum, DD2, 72 h, read-out: Individual replicates / Log AC50 (converted). The essentials:
as §1

For assay [5], the system named is P. berghei-ANKA-GFP-LucCON liver stage parasites in HepG2-A16-CD81EGFP cells. Kind of assay: P. berghei liver stage Pb-Luc assay, Method 1 (UCSD, 1536-well). It is filed as cell-based, Plasmodium berghei. The conditions noted are these: Method 1.
The test system of assay [6] is T2, Plasmodium falciparum Dd2-attB (parental line), asexual blood stages. Kind of assay: microbe, parasite or virus in culture. Also on record: species or system P. falciparum Dd2-attB in human erythrocytes; SYBR Green-I proliferation assay, Dd2-attB parental line, asexual blood stages. The conditions noted are these: Plasmodium falciparum, DD2, Erythrocyte, 72 h, read-out: Calculated / Average Log AC50 (M), mean of replicates, 72 h (converted).

Structures are written as SMILES. Where “and” joins values, the source holds several entries; their conditions need not be identical. Equal values may be shown once. Read-outs that look alike come from different tables or passages of the source.

Consider `O=C(Cc1ccc(O)cc1)N1CC(CNc2ccccc2)C2(C1)CN(c1ccccc1)C2` (stereo not shown) [NCGC00415859-01], for which the AC50 in assay [1] was 0.243 µM; in assay [5] (Hill fit, 50% of maximum activity response, read-out: AC50), 0.631 µM; in assay [5] (Plasmodium berghei, Hill fit, 50% of maximum activity response, read-out: AC50) it was 0.447 µM; in assay [5] (Plasmodium berghei, log10 of molar AC50 from Hill fit, read-out: Log AC50 (converted)), 0.447 µM; in assay [6] it was 1.63e-07 M. For the same molecule, the “Activity direction (Decrease / Inactive)” value in assay [2] is reported as “Inactive”. In addition, the “Individual replicates / Log AC50 (M)” value in assay [3] was -6.4873 Log AC50 (M) and -6.7373 Log AC50 (M) and -6.8873 Log AC50 (M); in assay [4], -6.8373 Log AC50 (M) and -6.9373 Log AC50 (M) and -6.5873 Log AC50 (M). The “Max Resp (signal direction of the dose response)” value in assay [5] (Decrease = decreasing P. berghei viability with dose, Increase = increasing signal, Inactive = no dose response) was “Decrease”. In addition, the “Log AC50 (M)” value in assay [5] (log10 of molar AC50 from Hill fit) is -6.200 M.
In the case of `O=[N+]([O-])c1ccccc1NCc1ccc(O)c2ncccc12` [NCGC00184896-01], the “Individual replicates / Log AC50 (M)” value in assay [3] is -5.0486 Log AC50 (M); in assay [4], -4.7986 Log AC50 (M) and -5.0986 Log AC50 (M) and -5.1486 Log AC50 (M). Further, the AC50 is 12.6 µM in assay [3] and 9.65e-06 M in assay [6].
On to `O=C(Nc1ccc(O)c2ncccc12)c1ccccc1F` [NCGC00184884-01], for which the “Individual replicates / Log AC50 (M)” value was -4.8486 Log AC50 (M) and -5.0986 Log AC50 (M) in assay [3]; -5.2486 Log AC50 (M) and -4.9486 Log AC50 (M) in assay [4]. For the same molecule, the values for the AC50 in assay [4] and in assay [6] were 6.33 µM and 7.38e-06 M, respectively.
Take `O=C(NC1=CC(=O)c2ccccc2C1=O)c1ccccc1` [MLS002693850-02]: the “Individual replicates / Log AC50 (M)” value in assay [3] is -5.5486 Log AC50 (M) and -5.0986 Log AC50 (M); in assay [4], -5.5986 Log AC50 (M) (2×) and -5.1486 Log AC50 (M). The AC50 in assay [6] is 3.56e-06 M.
As for `CN(C)CC(C)(C)CNC(=O)c1cccc(-c2cc(O)c3ncccc3c2)c1` [NCGC00244532-01], the “Individual replicates / Log AC50 (M)” value in assay [3] is -4.7486 Log AC50 (M) and -5.0986 Log AC50 (M); in assay [4], -4.7986 Log AC50 (M) and -5.1486 Log AC50 (M) and -4.8486 Log AC50 (M). For the same molecule, in assay [6], the AC50 was 1.17e-05 M.
`O=C1c2ccccc2C(=O)C1c1ccc(C(F)(F)F)cc1` [NCGC00510065-01]: the “Individual replicates / Log AC50 (M)” value in assay [3] was -4.6986 Log AC50 (M) and -4.7486 Log AC50 (M); in assay [4] it was -4.7486 Log AC50 (M) (2×) and -5.0986 Log AC50 (M). The AC50 in assay [3] was 17.8 µM; in assay [6] it was 1.36e-05 M.
On to `CN1CCN(C(=O)c2ccc(-c3cc(O)c4ncccc4c3)cc2)CC1` [NCGC00244524-01], for which the “Individual replicates / Log AC50 (M)” value is -5.0486 Log AC50 (M) in assay [3]; -5.0486 Log AC50 (M) and -5.0986 Log AC50 (M) in assay [4]. The figures for the AC50 in assay [3], in assay [4] and in assay [6] were 15.9 µM, 15.9 µM and 1.04e-05 M, respectively.
As for `NC(=O)c1ccc(O)c2ncccc12` [NCGC00184888-01], the AC50 in assay [3] was 20 µM; in assay [4], 14.2 µM; in assay [6] it was 1.59e-05 M.
For the molecule `COC(=O)c1ccc(O)c2ncc(N3CCN(C)CC3)cc12` [NCGC00241034-01], the “Individual replicates / Log AC50 (M)” value in assay [3] was -5.2486 Log AC50 (M) and -5.2986 Log AC50 (M) and -4.8486 Log AC50 (M); in assay [4] it was -5.2986 Log AC50 (M) and -5.0486 Log AC50 (M). Besides, the figures for the AC50 in assay [4] and in assay [6] were 5.03 µM and 6.09e-06 M, respectively.
`CCCOC(c1cc2nccc(C(=O)O)c2[nH]1)c1ccccc1Cl` (stereo not shown) [NCGC00381656-01]: the “Individual replicates / Log AC50 (M)” value in assay [3] is -4.9486 Log AC50 (M); in assay [4], -5.0486 Log AC50 (M) and -4.7986 Log AC50 (M). Also, the AC50 in assay [3] was 15.9 µM; in assay [4], 7.97 µM; in assay [6], 1.04e-05 M.
Regarding `COc1cccc(NCc2ccc(O)c3ncccc23)n1` [NCGC00241024-01], the “Individual replicates / Log AC50 (M)” value was -4.8486 Log AC50 (M) in assay [3]; -4.8986 Log AC50 (M) and -5.0486 Log AC50 (M) in assay [4]. Further, the AC50 in assay [3] was 12.6 µM; in assay [4], 12.6 µM; in assay [6], 1.13e-05 M.
As to `Oc1ccc(CNc2ccccc2F)c2cccnc12` [NCGC00031503-02], the “Individual replicates / Log AC50 (M)” value was -4.7486 Log AC50 (M) and -4.7986 Log AC50 (M) in assay [3]; -4.9986 Log AC50 (M) in assay [4]. Further, the AC50 is 20 µM in assay [3], 17.8 µM in assay [4] and 1.22e-05 M in assay [6].
